Measured values from patent US20100069451A1, “SALT OF 3-BENZYL-2-METHYL-2,3,3A,4,5,6,7, 7A- OCTAHYDROBENZO[D]ISOXAZOL-4-ONE” (ABIOGEN PHARMA S.P.A, priority 2006, published 2010).
Counter-ions that a name gives are not always drawn. Like-named read-outs stand apart in the source and are kept apart here.

Assays:
[1] = Absorption kinetic after oral administration: plasma concentration of BTG 1640; assay type: in vivo, rats Sprague Dawley; conditions: rat
Protocol: Absorption extent and rate of molecule BTG 1640 in its forms of oxalate and hydrochloride salts were evaluated.
With this intent, the two salts were dispersed in an aqueous suspension of arabic gum at 5% thus obtaining two formulations, each one orally administered through oesophageous gavage at dose of 10 mg/kg (expressed as free base of BTG 1640) to five rats Sprague Dawley.
Plasma concentration of molecule BTG 1640 was determined at different time points (see Table 7).

[2] = Stability test of BTG 1640 salts under storage conditions: purity; assay type: physicochemical; conditions: for Purity %: time 0 (months)
Protocol: Samples of 100 mg each of BTG 1640 hydrochloride were subjected to the following preservation conditions:
The purities were then analyzed periodically, initially every three months, in order to underline possible variations.
Samples of 100 mg each of BTG 1640 oxalate prepared according to example 1B were subjected to the following preservation conditions:
Quarterly and in an overall period of nine months its purity was then analyzed in order to point out possible variations.
The stabilities were then evaluated by subjecting samples of 100 mg of each salt to the following analogous preservation conditions:
Quarterly and in an overall period of nine months their purity was then analyzed in order to underline possible variations.

female CD-1 mice = assay: Acute oral toxicity; assay type: in vivo; conditions: for Clinical signs / Histopathological examination of kidneys: female CD-1 mice
Protocol: Acute oral toxicity of salts hydrochloride and oxalate of BTG-1640 was evaluated.
The two salts were dispersed in an aqueous suspension, thus obtaining two formulations, each one orally administered through oesophageous gavage at dose of 2000 mg/kg bw (expressed as free base of BTG 1640) to one of two groups comprising three female CD-1 mice per group.
The observation lasted 14 days.

[3] = Stability test of BTG 1640 salts under storage conditions: total impurities; assay type: physicochemical; conditions: for Impurity profile (in words): condition d): 40° C./75% RH
Protocol: Contemporaneously, the impurity analysis in the conditions a)-d) of T/% RH were carried out.
As a confirmation of such evidence, a test for the evaluation of the impurity percentage of the sample subjected to the same conditions a)-d) of T/% RH was parallely carried out. The experimental values in Table 4 were obtained.

[4] = condition d): 40° C./75% RH, up to six months
[5] = 2000 mg/kg bw oral (as free base)
[6] = T = 25° C., humidity 60% RH, time 0 (months)
[7] = T = 30° C., humidity 65% RH, time 0 (months)
[8] = T = 40° C., humidity 75% RH, time 0 (months)
[9] = Sprague Dawley, in vivo, po, 10 mg/kg

| SMILES | Stability (in words) [2, 4] | Clinical signs (female CD-1 mice; [5]) | Histopathological examination of kidneys (female CD-1 mice; [5]) | % impurities ([3]; T = 5° C., time 0 (months)) [%] | % impurities [3, 6] [%] | % impurities [3, 7] [%] | % impurities [3, 8] [%] | Impurity profile (in words) [3] | Stability compared with BTG 1640 hydrochloride (in words) ([2]; conditions a)-d)) | also measured |
| --- | --- | --- | --- | --- | --- | --- | --- | --- | --- | --- |
| CN1OC2CCCC(=O)C2C1Cc1ccccc1.Cl (stereo not drawn) [BTG 1640 hydrochloride, reference compound] | strong instability | Lethargy, ataxia, aggressiveness and vocalization | small foci of acute tubular necrosis in the cortex, balloon degeneration of the epithelium and dilatation of convoluted tubules | 0.36 | 0.36 | 0.36 | 0.36 | unacceptable percentage of impurities |  | BTG 1640 free base concentration in plasma ([1]; oral gavage 10 mg/kg (as free base), 5% arabic gum suspension, 300 minutes): 0 µg/mL; Stability (in words) ([2]; conditions a)-c): 5° C., 25° C./60% RH, 30° C./65% RH, 12 months): good stability; Validity time period ([2]; indicated on the basis of the stability results, preserved at 2-8° C.): 12 months; Lethality (female CD-1 mice; 2000 mg/kg bw oral (as free base), three female CD-1 mice, 14 days observation): lethal in two animals out of three |
| CN1OC2CCCC(=O)C2C1Cc1ccccc1.O=C(O)/C=C\C(=O)O (stereo not drawn) [BTG 1640 maleate] | degrades in unacceptable way |  |  |  | 0.23 | 0.23 |  |  | even worse | Stability (in words) ([2]; condition c) 30° C./65% RH, at sixth month): considerable degradation; Stability (in words) ([2]; conditions a) and b)): acceptable profile |
| CN1OC2CCCC(=O)C2C1Cc1ccccc1.CS(=O)(=O)O (stereo not drawn) [BTG 1640 methanesulphonate] |  |  |  |  | 0.42 | 0.42 |  |  | even worse | Stability (in words) ([2]; conditions b)-d)): begins to degrade already after three months |
| CN1OC2CCCC(=O)C2C1Cc1ccccc1 [BTG 1640 oxalate, oxalate salt of rel-(3R,3aS,7aS)-3-benzyl-2-methyl-2,3,3a,4,5,6,7,7a-octahydrobenzo[d]isoxazol-4-one] |  | quickly reversible neurological signs | focal and moderate balloon degeneration of the epithelium in convoluted tubules | 0.27 | 0.27 | 0.27 | 0.27 | invariable impurity profile |  | concentration at 2 minutes [1, 9]: 2050 ng/mL; concentration at 5 minutes [1, 9]: 1870 ng/mL; concentration at 30 minutes [1, 9]: 390 ng/mL; concentration at 300 minutes [1, 9]: 0 ng/mL; Absorption compared with hydrochloride (in words) ([1]; in vivo, po, 10 mg/kg): higher absorption; Stability compared with BTG 1640 hydrochloride (in words) [2]: higher stability; Purity % ([2]; T = 5° C.): 99.7%; Purity % ([2]; T = 25° C., humidity 60% RH): 99.7%; Purity % ([2]; T = 30° C., humidity 65% RH): 99.7%; Purity % ([2]; T = 40° C., humidity 75% RH): 99.7%; Toxicity compared with hydrochloride (in words) (female CD-1 mice; 2000 mg/kg bw oral, female mice): less toxic; % impurities ([3]; T = 5° C., time 3 (months)): 0.33%; % impurities ([3]; T = 5° C., time 9 (months)): 0.29%; % impurities ([3]; T = 25° C., humidity 60% RH, time 3 (months)): 0.30%; % impurities ([3]; T = 30° C., humidity 65% RH, time 3 (months)): 0.28% |
| CN1OC2CCCC(=O)C2C1Cc1ccccc1.O=C(O)CCC(=O)O (stereo not drawn) [BTG 1640 succinate] |  |  |  |  | 0.77 | 0.77 |  |  | even worse | Stability (in words) ([2]; all observation conditions a)-d), from the third month): shows degradation |
